Experimental data reported in PMC3517478 (BMC Neurology, 2012).
Changes are numbered by the printed parent chain.

How the values were obtained:
[1] = target: T1, human α1R271Q-GlyR expressed in HEK 293 cells (Homo sapiens, UniProt P23415, R299Q); assay: Whole-cell patch-clamp, positive allosteric modulation of glycine (EC20) induced currents; type: cell-based; set-up: expressed in transfected cells; host or cells: HEK 293 (transient, electroporation; pcDNA1amp vector); conditions: R271Q
T1 sequence (P23415 29-457 R299Q): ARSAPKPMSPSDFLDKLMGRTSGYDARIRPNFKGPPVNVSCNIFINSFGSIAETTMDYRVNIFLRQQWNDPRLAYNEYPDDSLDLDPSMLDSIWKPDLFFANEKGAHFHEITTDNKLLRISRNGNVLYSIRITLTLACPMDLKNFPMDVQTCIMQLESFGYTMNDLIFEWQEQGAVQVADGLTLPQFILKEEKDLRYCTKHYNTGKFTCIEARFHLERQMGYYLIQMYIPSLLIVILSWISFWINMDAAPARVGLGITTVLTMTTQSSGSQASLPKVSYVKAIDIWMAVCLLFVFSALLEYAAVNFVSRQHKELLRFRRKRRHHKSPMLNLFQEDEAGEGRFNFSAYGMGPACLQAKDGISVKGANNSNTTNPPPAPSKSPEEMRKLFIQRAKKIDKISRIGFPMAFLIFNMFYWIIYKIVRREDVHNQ
Procedure: (§1) Drug-containing vials were vigorously vortexed for 30min.
(§2) A new cell was used for each protocol and at least four different experiments were performed for each condition. The concentration of the diluent EtOH corresponding to the highest drug concentration used was 17150 μM.
(§3) Currents were filtered at 2 kHz.
(§4) Currents were normalized to their own maximum response.

[2] = target: T2, human α1R271L-GlyR expressed in HEK 293 cells (Homo sapiens, UniProt P23415, R299L); assay: as above; type: cell-based; set-up: expressed in transfected cells; host or cells: HEK 293 (transient, electroporation; pcDNA1amp vector); conditions: R271L
T2 sequence (P23415 29-457 R299L): T1 sequence (P23415 29-457 R299Q) with Q271L
Procedure: as §1, §2, §3, §4

[3] = target: T3, human α1R271K-GlyR expressed in HEK 293 cells (Homo sapiens, UniProt P23415, R299K); assay: as above; type: cell-based; set-up: expressed in transfected cells; host or cells: HEK 293 (transient, electroporation; pcDNA1amp vector); conditions: R271K
T3 sequence (P23415 29-457 R299K): T1 sequence (P23415 29-457 R299Q) with Q271K
Procedure: as §1, §2, §3, §4

[4] = target: T1, human α1R271Q-GlyR expressed in HEK 293 cells; assay: Whole-cell patch-clamp, direct activation in the absence of glycine; type: cell-based; set-up: expressed in transfected cells; host or cells: HEK 293 (transient, electroporation; pcDNA1amp vector); conditions: R271Q, 0.01-1000 μM
Procedure: as §1, §2, §3

[5] = target: T4, human α1S267I-GlyR expressed in HEK 293 cells (Homo sapiens, UniProt P23415, S295I); assay: as above; type: cell-based; set-up: expressed in transfected cells; host or cells: HEK 293 (transient, electroporation; pcDNA1amp vector); conditions: S267I, 0.01-1000 μM
T4 sequence (P23415 29-457 S295I): T1 sequence (P23415 29-457 R299Q) with S267I, Q271R
Procedure: as §1, §2, §3

[6] = target: T3, human α1R271K-GlyR expressed in HEK 293 cells; assay: as above; type: cell-based; set-up: expressed in transfected cells; host or cells: HEK 293 (transient, electroporation; pcDNA1amp vector); conditions: R271K
Procedure: as §1, §2, §3

[7] = tested on: human alpha1 glycine receptor; conditions: human alpha1 glycine receptors in HEK293; cited from earlier work

Q: Which “positive allosteric modulation nH ± SEM” value ([1]; EC20 glycine 10 mM) does the source give for “4-chloro-2,6-dimethylphenol [4-chloropropofol]” here?
A: The value was 0.9 ± 1.3.

Q: What about the EC50 ([1]; co-applied with sub-saturating (EC20) glycine 10 mM, read-out: positive allosteric modulation EC50 ± SEM) of the same compound?
A: Its EC50 is 1.3 ± 0.6 µM.

Q: And the “positive allosteric modulation, potentiation [% of peak current amplitude] ± SEM” value ([1]; maximal positive allosteric modulation, EC20 glycine 10 mM)?
A: The value was 260 ± 52%.

Q: What about the “positive allosteric modulation nH ± SEM” value ([2]; EC20 glycine 30 mM) of the same compound?
A: The value was 0.7 ± 0.3.

Q: And the EC50 ([2]; co-applied with sub-saturating (EC20) glycine 30 mM, read-out: positive allosteric modulation EC50 ± SEM)?
A: The EC50 was 0.1 ± 0.2 µM.

Q: What about the “positive allosteric modulation, potentiation [% of peak current amplitude] ± SEM” value ([2]; maximal positive allosteric modulation, EC20 glycine 30 mM) of the same compound?
A: Its value is 153 ± 46%.

Q: And the “positive allosteric modulation nH ± SEM” value ([3]; EC20 glycine 100 μM)?
A: The value was 0.3 ± 0.1.

Q: And the EC50 ([3]; co-applied with sub-saturating (EC20) glycine 100 μM, read-out: positive allosteric modulation EC50 ± SEM)?
A: The EC50 was 6 ± 2.3 µM.

Q: And the “positive allosteric modulation, potentiation [% of peak current amplitude] ± SEM” value ([3]; maximal positive allosteric modulation, EC20 glycine 100 μM)?
A: Its value is 231 ± 174%.

Q: And the direct activation [4]?
A: The direct activation was “only a marginal direct activation”.

Q: What about the direct activation [5] of the same compound?
A: The direct activation was “completely insensitive”.

Q: What about the “direct activation nH” value [6] of the same compound?
A: Its value is 0.41 ± 0.15.

Q: And the “mean maximal activation (direct)” value [6]?
A: Its value is 77.2 ± 4.2%.

Q: And the EC50 ([6]; 0.01-1000 μM, n = 5)?
A: Its EC50 is 16.4 ± 22.3 µM.

Q: For NCC(=O)O [glycine], which “Hill slope nH” value [7] is on record?
A: The value was 2.4.
